{"source": "ChEMBL document CHEMBL4825729", "about": "“Modulators of immunoregulatory exonucleases PLD3 and PLD4 identified by high-throughput screen” (Bioorg Med Chem Lett, 2021)", "molecules": {"B1": {"name": "5'-3' exonuclease PLD3 (Homo sapiens), Q8IV08 (protein)", "chain": "MKPKLMYQELKVPAEEPANELPMNEIEAWKAAEKKARWVLLVLILAVVGFGALMTQLFLWEYGDLHLFGPNQRPAPCYDPCEAVLVESIPEGLDFPNASTGNPSTSQAWLGLLAGAHSSLDIASFYWTLTNNDTHTQEPSAQQGEEVLRQLQTLAPKGVNVRIAVSKPSGPQPQADLQALLQSGAQVRMVDMQKLTHGVLHTKFWVVDQTHFYLGSANMDWRSLTQVKELGVVMYNCSCLARDLTKIFEAYWFLGQAGSSIPSTWPRFYDTRYNQETPMEICLNGTPALAYLASAPPPLCPSGRTPDLKALLNVVDNARSFIYVAVMNYLPTLEFSHPHRFWPAIDDGLRRATYERGVKVRLLISCWGHSEPSMRAFLLSLAALRDNHTHSDIQVKLFVVPADEAQARIPYARVNHNKYMVTERATYIGTSNWSGNYFTETAGTSLLVTQNGRGGLRSQLEAIFLRDWDSPYSHDLDTSADSVGNACRLL"}, "B2": {"name": "5'-3' exonuclease PLD4 (Homo sapiens), Q96BZ4 (protein)", "chain": "MLKPLWKAAVAPTWPCSMPPRRPWDREAGTLQVLGALAVLWLGSVALICLLWQVPRPPTWGQVQPKDVPRSWEHGSSPAWEPLEAEARQQRDSCQLVLVESIPQDLPSAAGSPSAQPLGQAWLQLLDTAQESVHVASYYWSLTGPDIGVNDSSSQLGEALLQKLQQLLGRNISLAVATSSPTLARTSTDLQVLAARGAHVRQVPMGRLTRGVLHSKFWVVDGRHIYMGSANMDWRSLTQVKELGAVIYNCSHLAQDLEKTFQTYWVLGVPKAVLPKTWPQNFSSHFNRFQPFHGLFDGVPTTAYFSASPPALCPQGRTRDLEALLAVMGSAQEFIYASVMEYFPTTRFSHPPRYWPVLDNALRAAAFGKGVRVRLLVGCGLNTDPTMFPYLRSLQALSNPAANVSVDVKVFIVPVGNHSNIPFSRVNHSKFMVTEKAAYIGTSNWSEDYFSSTAGVGLVVTQSPGAQPAGATVQEQLRQLFERDWSSRYAVGLDGQAPGQDCVWQG"}}, "key": {"5'-3' exonuclease PLD3 [1]": {"molecular_target": "T1, 5'-3' exonuclease PLD3 (Homo sapiens, UniProt Q8IV08)", "T1 sequence (Q8IV08 whole entry)": "B1 chain", "assay": "Inhibition of PLD3 (unknown origin) using 3'-dT-MUP as substrate by fluorescence-based screening assay"}, "5'-3' exonuclease PLD4 [2]": {"molecular_target": "T2, 5'-3' exonuclease PLD4 (Homo sapiens, UniProt Q96BZ4)", "T2 sequence (Q96BZ4 whole entry)": "B2 chain", "assay": "Inhibition of PLD4 (unknown origin) using 3'-dT-nNPP as substrate by fluorescence-based screening assay"}, "5'-3' exonuclease PLD3 [3]": {"molecular_target": "T1, 5'-3' exonuclease PLD3", "assay": "Inhibition of PLD3 (unknown origin) using 3'-dT-nNPP as substrate by fluorescence-based screening assay"}, "5'-3' exonuclease PLD4 [4]": {"molecular_target": "T2, 5'-3' exonuclease PLD4", "assay": "Inhibition of PLD4 (unknown origin) using 3'-dT-MUP as substrate by fluorescence-based screening assay"}, "[5]": {"molecular_target": "T3, 5'-3' exonuclease PLD3 (Homo sapiens) (UniProt Q8IV08)", "T3 sequence (whole entry)": "B1 chain", "assay": "Mixed type inhibition of PLD3 (unknown origin) assessed as binding constant using varying concentration 3'-dT-MUP as substrate by fluorescence-based screening assay"}, "[6]": {"molecular_target": "T3, 5'-3' exonuclease PLD3 (Homo sapiens)", "assay": "Mixed type inhibition of PLD3 (unknown origin) assessed as Km using varying concentration 3'-dT-MUP as substrate by fluorescence-based screening assay"}, "[7]": {"molecular_target": "T4, 5'-3' exonuclease PLD4 (Homo sapiens) (UniProt Q96BZ4)", "T4 sequence (whole entry)": "B2 chain", "assay": "Competitive inhibition of PLD4 (unknown origin) assessed as Km using varying concentration 3'-dT-MUP as substrate by fluorescence-based screening assay"}, "[8]": {"molecular_target": "T4, 5'-3' exonuclease PLD4 (Homo sapiens)", "assay": "Competitive inhibition of PLD4 (unknown origin) assessed as binding constant using varying concentration 3'-dT-MUP as substrate by fluorescence-based screening assay"}, "5'-3' exonuclease PLD4 [9]": {"molecular_target": "T2, 5'-3' exonuclease PLD4", "assay": "Activation of PLD4 (unknown origin) using 3'-dT-MUP as substrate by fluorescence-based screening assay"}, "5'-3' exonuclease PLD3 [10]": {"molecular_target": "T1, 5'-3' exonuclease PLD3", "assay": "Activation of PLD3 (unknown origin) using 3'-dT-MUP as substrate by fluorescence-based screening assay"}, "5'-3' exonuclease PLD3 [11]": {"molecular_target": "T1, 5'-3' exonuclease PLD3", "assay": "Activation of PLD3 (unknown origin) using 3'-dT-nNPP as substrate by fluorescence-based screening assay"}, "5'-3' exonuclease PLD4 [12]": {"molecular_target": "T2, 5'-3' exonuclease PLD4", "assay": "Activation of PLD4 (unknown origin) using 3'-dT-nNPP as substrate by fluorescence-based screening assay"}, "[13]": {"molecular_target": "T3, 5'-3' exonuclease PLD3 (Homo sapiens)", "assay": "Activation of PLD3 (unknown origin) assessed as association constant using varying concentration 3'-dT-MUP as substrate by fluorescence-based screening assay", "details": "filed as activator; call rule not given here"}, "[14]": {"compound": "Cc1nc(SCC(=O)N2CCC(C)CC2)c2ccsc2n1", "assay": "Activation of PLD3 (unknown origin) assessed as Vmax using varying concentration 3'-dT-MUP as substrate by fluorescence-based screening assay", "details": "Homo sapiens; filed as activator"}, "[15]": {"substrate": "Cc1cn([C@H]2C[C@H](O)[C@@H](COP(=O)(O)Oc3ccc([N+](=O)[O-])cc3)O2)c(=O)[nH]c1=O", "assay": "(§1) Substrate activity at PLD3 (unknown origin) assessed as ratio of Kcat to Km by Michaelis-Menten kinetic model based fluorescence assay", "details": "Homo sapiens"}, "[16]": {"substrate": "Cc1cn([C@H]2C[C@H](OP(=O)(O)Oc3ccc([N+](=O)[O-])cc3)[C@@H](CO)O2)c(=O)[nH]c1=O", "assay": "as §1", "details": "Homo sapiens"}, "[17]": {"substrate": "Cc1cn([C@H]2C[C@H](O)[C@@H](COP(=O)(O)Oc3ccc([N+](=O)[O-])cc3)O2)c(=O)[nH]c1=O", "assay": "(§2) Substrate activity at PLD3 (unknown origin) assessed as Km by Michaelis-Menten kinetic model based fluorescence assay", "details": "Homo sapiens"}, "[18]": {"substrate": "Cc1cn([C@H]2C[C@H](OP(=O)(O)Oc3ccc([N+](=O)[O-])cc3)[C@@H](CO)O2)c(=O)[nH]c1=O", "assay": "as §2", "details": "Homo sapiens"}, "[19]": {"substrate": "Cc1cn([C@H]2C[C@H](O)[C@@H](COP(=O)(O)Oc3ccc([N+](=O)[O-])cc3)O2)c(=O)[nH]c1=O", "assay": "(§3) Substrate activity at PLD3 (unknown origin) assessed as Kcat by Michaelis-Menten kinetic model based fluorescence assay", "details": "Homo sapiens"}, "[20]": {"substrate": "Cc1cn([C@H]2C[C@H](OP(=O)(O)Oc3ccc([N+](=O)[O-])cc3)[C@@H](CO)O2)c(=O)[nH]c1=O", "assay": "as §3", "details": "Homo sapiens"}, "[21]": {"compound": "Cc1ccc(Cn2c(SCC(=O)O)nc3c2c(=O)n(C)c(=O)n3C)cc1", "assay": "(§4) Mixed type inhibition of PLD3 (unknown origin) assessed as Vmax using varying concentration 3'-dT-MUP as substrate by fluorescence-based screening assay", "details": "Homo sapiens"}, "[22]": {"compound": "Cc1cc(C)cc(N2CCn3c2nc2c3c(=O)n(CC(=O)O)c(=N)n2C)c1", "assay": "as §4", "details": "Homo sapiens"}, "[23]": {"compound": "Cc1nc(SCC(=O)N2CCC(C)CC2)c2ccsc2n1", "assay": "Activation of PLD3 (unknown origin) assessed as Km using varying concentration 3'-dT-MUP as substrate by fluorescence-based screening assay", "details": "Homo sapiens; filed as activator"}, "[24]": {"substrate": "Cc1cn([C@H]2C[C@H](O)[C@@H](COP(=O)(O)Oc3ccc([N+](=O)[O-])cc3)O2)c(=O)[nH]c1=O", "assay": "(§5) Substrate activity at PLD4 (unknown origin) assessed as Km by Michaelis-Menten kinetic model based fluorescence assay", "details": "Homo sapiens"}, "[25]": {"substrate": "Cc1cn([C@H]2C[C@H](OP(=O)(O)Oc3ccc([N+](=O)[O-])cc3)[C@@H](CO)O2)c(=O)[nH]c1=O", "assay": "as §5", "details": "Homo sapiens"}, "[26]": {"compound": "Cc1cc(C)cc(N2CCn3c2nc2c3c(=O)n(CC(=O)O)c(=N)n2C)c1", "assay": "Competitive inhibition of PLD4 (unknown origin) assessed as Vmax using varying concentration 3'-dT-MUP as substrate by fluorescence-based screening assay", "details": "Homo sapiens"}, "[27]": {"substrate": "Cc1cn([C@H]2C[C@H](O)[C@@H](COP(=O)(O)Oc3ccc([N+](=O)[O-])cc3)O2)c(=O)[nH]c1=O", "assay": "(§6) Substrate activity at PLD4 (unknown origin) assessed as ratio of Kcat to Km by Michaelis-Menten kinetic model based fluorescence assay", "details": "Homo sapiens"}, "[28]": {"substrate": "Cc1cn([C@H]2C[C@H](OP(=O)(O)Oc3ccc([N+](=O)[O-])cc3)[C@@H](CO)O2)c(=O)[nH]c1=O", "assay": "as §6", "details": "Homo sapiens"}, "[29]": {"substrate": "Cc1cn([C@H]2C[C@H](O)[C@@H](COP(=O)(O)Oc3ccc([N+](=O)[O-])cc3)O2)c(=O)[nH]c1=O", "assay": "(§7) Substrate activity at PLD4 (unknown origin) assessed as Kcat by Michaelis-Menten kinetic model based fluorescence assay", "details": "Homo sapiens"}, "[30]": {"substrate": "Cc1cn([C@H]2C[C@H](OP(=O)(O)Oc3ccc([N+](=O)[O-])cc3)[C@@H](CO)O2)c(=O)[nH]c1=O", "assay": "as §7", "details": "Homo sapiens"}}, "data": [{"molecule": "Cc1ccc(Cn2c(SCC(=O)O)nc3c2c(=O)n(C)c(=O)n3C)cc1", "values": [{"measurement": "IC50", "setting": "5'-3' exonuclease PLD3 [1]", "result": 13, "unit": "µM"}, {"measurement": "IC50", "setting": "5'-3' exonuclease PLD4 [2]", "result": 128, "unit": "µM"}, {"measurement": "IC50", "setting": "5'-3' exonuclease PLD3 [3]", "result": 8.9, "unit": "µM"}, {"measurement": "IC50", "setting": "5'-3' exonuclease PLD4 [4]", "result": 142, "unit": "µM"}, {"measurement": "INH", "setting": "[5]", "result": 6.2, "unit": "µM"}, {"measurement": "INH", "setting": "[6]", "result": 13.6, "unit": "µM"}]}, {"molecule": "Cc1cc(C)cc(N2CCn3c2nc2c3c(=O)n(CC(=O)O)c(=N)n2C)c1", "values": [{"measurement": "IC50", "setting": "5'-3' exonuclease PLD3 [1]", "result": 39.6, "unit": "µM"}, {"measurement": "INH", "setting": "[7]", "result": 64.5, "unit": "µM"}, {"measurement": "INH", "setting": "[8]", "result": 32.4, "unit": "µM"}, {"measurement": "IC50", "setting": "5'-3' exonuclease PLD4 [2]", "result": 19, "unit": "µM"}, {"measurement": "IC50", "setting": "5'-3' exonuclease PLD3 [3]", "result": 127, "unit": "µM"}, {"measurement": "IC50", "setting": "5'-3' exonuclease PLD4 [4]", "result": 14.7, "unit": "µM"}, {"measurement": "INH", "setting": "[5]", "result": 28.9, "unit": "µM"}, {"measurement": "INH", "setting": "[6]", "result": 14.9, "unit": "µM"}]}, {"molecule": "Cc1nc(SCC(=O)N2CCC(C)CC2)c2ccsc2n1", "values": [{"measurement": "EC50", "setting": "5'-3' exonuclease PLD4 [9]", "result": 115, "unit": "µM"}, {"measurement": "EC50", "setting": "5'-3' exonuclease PLD3 [10]", "result": 12.8, "unit": "µM"}, {"measurement": "EC50", "setting": "5'-3' exonuclease PLD3 [11]", "result": 19.6, "unit": "µM"}, {"measurement": "EC50", "setting": "5'-3' exonuclease PLD4 [12]", "result": "Not Active"}, {"measurement": "Ka", "setting": "[13]", "result": 80.9, "unit": "µM"}]}, {"molecule": "B1", "values": [{"measurement": "Vmax", "setting": "[14]", "result": "327 /RU/s"}, {"measurement": "kcat", "setting": "[15]", "result": 74.5, "unit": "s⁻¹"}, {"measurement": "kcat", "setting": "[16]", "result": 18.9, "unit": "s⁻¹"}, {"measurement": "Km", "setting": "[17]", "result": 1350, "unit": "µM"}, {"measurement": "Km", "setting": "[18]", "result": 302, "unit": "µM"}, {"measurement": "kcat/Km", "setting": "[19]", "result": 34.8, "unit": "M⁻¹ s⁻¹"}, {"measurement": "kcat/Km", "setting": "[20]", "result": 6.26, "unit": "M⁻¹ s⁻¹"}, {"measurement": "Vmax", "setting": "[21]", "result": "313 /RU/s"}, {"measurement": "Vmax", "setting": "[22]", "result": "318 /RU/s"}, {"measurement": "Km", "setting": "[23]", "result": 14.7, "unit": "µM"}]}, {"molecule": "B2", "values": [{"measurement": "kcat", "setting": "[24]", "result": 47, "unit": "s⁻¹"}, {"measurement": "kcat", "setting": "[25]", "result": 18.9, "unit": "s⁻¹"}, {"measurement": "Vmax", "setting": "[26]", "result": "1560 /RU/s"}, {"measurement": "kcat/Km", "setting": "[27]", "result": 86.6, "unit": "M⁻¹ s⁻¹"}, {"measurement": "kcat/Km", "setting": "[28]", "result": 5, "unit": "M⁻¹ s⁻¹"}, {"measurement": "Km", "setting": "[29]", "result": 860, "unit": "µM"}, {"measurement": "Km", "setting": "[30]", "result": 378, "unit": "µM"}]}]}
